Counter-ions that a name gives are not always drawn.
What follows are compounds tested against HSET full length protein (Homo sapiens (Human), UniProt Q9BW19) (assay: HSET ADP-Glo Assay S - 3 μM ATP). Conditions: 5 nM HSET, 70 μg/mL microtubule, 80 min at rt, read-out: COMBINED HSET ADP GLO IC50.
Format: biochemical
Outline: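 Full-length human HSET (5 nM) with paclitaxel-stabilised bovine brain microtubules (70 μg/mL) in HEPES pH 6.8 buffer was preincubated 10 min with compound. ATP at 3 μM started the reaction, which ran 80 min at rt. ADP formed was measured by ADP-Glo luminescence.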

Chain of HSET full length protein (Q9BW19 whole entry): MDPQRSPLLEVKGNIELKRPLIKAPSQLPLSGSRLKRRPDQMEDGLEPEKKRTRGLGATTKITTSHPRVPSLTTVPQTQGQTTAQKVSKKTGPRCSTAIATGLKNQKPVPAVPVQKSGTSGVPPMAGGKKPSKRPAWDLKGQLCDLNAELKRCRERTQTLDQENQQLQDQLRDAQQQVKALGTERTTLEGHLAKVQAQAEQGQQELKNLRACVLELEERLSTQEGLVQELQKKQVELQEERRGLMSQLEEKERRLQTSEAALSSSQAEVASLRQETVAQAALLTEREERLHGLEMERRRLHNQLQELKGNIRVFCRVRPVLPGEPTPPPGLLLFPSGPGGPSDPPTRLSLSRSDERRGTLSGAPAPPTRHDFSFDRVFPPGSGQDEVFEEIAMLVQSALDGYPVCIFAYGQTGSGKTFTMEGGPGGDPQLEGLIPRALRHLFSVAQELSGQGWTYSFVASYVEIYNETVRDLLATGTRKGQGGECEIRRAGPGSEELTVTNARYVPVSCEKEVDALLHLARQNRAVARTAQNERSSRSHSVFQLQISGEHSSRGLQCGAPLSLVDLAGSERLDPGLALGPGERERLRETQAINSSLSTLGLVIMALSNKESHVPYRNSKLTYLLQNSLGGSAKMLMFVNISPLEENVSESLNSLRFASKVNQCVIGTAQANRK

Question: With `CCOC(=O)c1sc(NC(=O)CCNC(=O)c2cccc(-c3noc(C)n3)c2)cc1C` [Example 133, Ethyl-3-methyl-5-[3-[[3-(5-methyl-1,2,4-oxadiazol-3-yl)benzoyl]amino]propanoylamino]thiophene-2-carboxylate] as the compound, how does the IC50 read?
Answer: The IC50 was 93 nM.

Question: For `Cc1nc(-c2ccc3ccnc(N[C@H]4CCN(C(=O)c5cnc[nH]5)C4)c3c2)no1` [Example 250, (S)-(1 H-imidazol-5-yl)(3-((7-(5-methyl-1,2,4-oxadiazol-3-yl)isoquinolin-1-yl)amino)pyrrolidin-1-yl)methanone], which IC50 is on record?
Answer: The IC50 was 9460 nM.

Question: `Cc1nc(-c2ccc3ccnc(N[C@H]4CCN(C(=O)c5nc(C)c(C(C)(C)C)s5)C4)c3c2)no1` [Example 246, (S)-(5-(tert-butyl)-4-methylthiazol-2-yl)(3-((7-(5-methyl-1,2,4-oxadiazol-3-yl)isoquinolin-1-yl)amino)pyrrolidin-1-yl)methanone] was tested. Which IC50 did it give?
Answer: Its IC50 is 1740 nM.

Question: For `Cc1nc(-c2cccc(C(=O)NCCC(=O)Nc3nc(C)c(C(=O)OC4CCCCC4)s3)c2)no1` [Example 124, Cyclohexyl-4-methyl-2-(3-(3-(5-methyl-1,2,4-oxadiazol-3-yl)benzamido)propanamido)thiazole-5-carboxylate], which IC50 is on record?
Answer: The IC50 was 14 nM.

Question: With `Cc1nc(-c2ccc3ccnc(N[C@H]4CCN(C(=O)c5cnn(C(C)(C)C)c5)C4)c3c2)no1` [Example 252, (1-tert-Butylpyrazol-4-yl)-[(3S)-3-[[7-(5-methyl-1,2,4-oxadiazol-3-yl)-1-isoquinolyl]amino]pyrrolidin-1-yl]methanone] as the compound, how does the IC50 read?
Answer: Its IC50 is 16400 nM.

Question: How did the IC50 turn out when `CCCCCCOC(=O)c1sc(NC(=O)CCNC(=O)c2cccc(-c3noc(C)n3)c2)nc1C` [Example 123, Hexyl-4-methyl-2-(3-(3-(5-methyl-1,2,4-oxadiazol-3-yl)benzamido)propanamido)thiazole-5-carboxylate] was run?
Answer: The IC50 was 9 nM.

Question: Which IC50 does the source give for `Cc1nc(-c2ccc3ccnc(N[C@H]4C[C@@H](C(=O)Nc5cc(C(C)(C)C)on5)C4)c3c2)no1` [Example 100, (1 s,3s)-N-(5-(tert-butyl)isoxazol-3-yl)-3-((7-(5-methyl-1,2,4-oxadiazol-3-yl)isoquinolin-1-yl)amino)cyclobutane-1-carboxamide] here?
Answer: The IC50 was 836 nM.

Question: `CCCCc1sc(C(=O)NCCNc2nccc3ccc(-c4noc(C)n4)cc23)nc1C` [Example 137, 5-Butyl-4-methyl-N-(2-((7-(5-methyl-1,2,4-oxadiazol-3-yl)isoquinolin-1-yl)amino)ethyl)thiazole-2-carboxamide formate] was tested. Which IC50 did it give?
Answer: The IC50 was 778 nM.

Question: Which IC50 does the source give for `Cc1nc(-c2ccc3ccnc(NC[C@H](O)C(=O)Nc4nc(C)c(CC(C)C)s4)c3c2)no1` [Example 179, (S)-2-hydroxy-N-(5-isobutyl-4-methylthiazol-2-yl)-3-((7-(5-methyl-1,2,4-oxadiazol-3-yl)isoquinolin-1-yl)amino)propenamide] here?
Answer: Its IC50 is 43 nM.

Question: Which IC50 does the source give for `Cc1nc(-c2ccc3ccnc(N[C@H]4C[C@@H](C(=O)Nc5nc(Cl)c(C(=O)OC(C)(C)C)s5)C4)c3c2)no1` [Example 112, tert-Butyl 4-chloro-2-[[3-[[7-(5-methyl-1,2,4-oxadiazol-3-yl)-1-isoquinolyl]amino]cyclobutanecarbonyl]amino]thiazole-5-carboxylate] here?
Answer: Its IC50 is 54 nM.

Question: For `CCOC(=O)c1sc(NC(=O)CCNC(=O)c2cc(F)cc(C(=O)OC)c2)nc1C` [Example 10, Ethyl 2-[3-[(3-fluoro-5-methoxycarbonyl-benzoyl)amino]propanoylamino]-4-methyl-thiazole-5-carboxylate], which IC50 is on record?
Answer: The IC50 was 36 nM.

Question: For `Cc1nc(-c2ccc3ccnc(NCCC(=O)Nc4ncc(C5=CCCCC5)s4)c3c2)no1` [Example 86], which IC50 is on record?
Answer: The IC50 was 848 nM.

Question: For `CCOC(=O)c1sc(NC(=O)[C@H]2CNC[C@@H]2NC(=O)c2cccc(-c3noc(C)n3)c2)nc1C` [Example 149, Ethyl-4-methyl-2-[[(3S,4R)-4-[[3-(5-methyl-1,2,4-oxadiazol-3-yl)benzoyl]amino]pyrrolidine-3-carbonyl]amino]thiazole-5-carboxylate; formic acid], which IC50 is on record?
Answer: Its IC50 is 2800 nM.
